Experimental data: patent US9376418B2, “Substituted pyridine spleen tyrosine kinase (SYK) inhibitors” (Merck Sharp & Dohme Corp., priority 2012, dated 2016)
pIC50: −log10 of the molar value.

These compounds were tested against T1, recombinant human GST-SYK (Homo sapiens, UniProt P43405) (assay: Homogeneous Time-Resolved Fluorescence (HTRF) assay for the recombinant human Syk enzyme). Conditions: HTRF assay, recombinant human GST-SYK; IC50 given as class symbols; read-out: rhSYK Activity.
T1 construct: purchased Carna Biosciences 08-176
Type: biochemical
In short: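 GST-hSYK ([…]) was preincubated with inhibitor (0.1% DMSO final) for 10 minutes at room temperature in 15 mM Tris-HCl pH 7.5, 0.01% tween 20, 2 mM DTT. Biotinylated peptide (250 nM), 5 mM magnesium and 25 μM ATP started a 45-minute room-temperature reaction, read by time-resolved fluorescence.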

Structure (SMILES)	pIC50
CNC(=O)C1CCN(c2ccc(-c3cc(C)cc(Nc4nccc(C(F)(F)F)n4)c3)cn2)CC1 [Example 7.42, N-methyl-1-[5-(3-methyl-5-{[4-(trifluoromethyl)pyrimidin-2-yl]amino}phenyl)pyridin-2-yl]piperidine-4-carboxamide]	6.00 to 7.00
Cc1cc(Nc2nccc(C(F)(F)F)n2)cc(-c2ccc(NCC(C)(C)O)nc2)c1 [Example 7.44, 2-methyl-1-{[5-(3-methyl-5-{[4-(trifluoromethyl)pyrimidin-2-yl]amino}phenyl)pyridin-2-yl]amino}propan-2-ol]	> 7.00
CC(=O)N1CCN(c2ccc(-c3cc(C)cc(Nc4nccc(C(F)(F)F)n4)c3)cn2)CC1 [Example 7.45, N-{3-[6-(4-acetylpiperazin-1-yl)pyridin-3-yl]-5-methylphenyl}-4-(trifluoromethyl)pyrimidin-2-amine]	6.00 to 7.00
Cc1cc(Nc2nccc(C(F)(F)F)n2)cc(-c2ccc(N3CCN(C)CC3)nc2)c1 [Example 7.46, N-{3-methyl-5-[6-(4-methylpiperazin-1-yl)pyridin-3-yl]phenyl}-4-(trifluoromethyl)pyrimidin-2-amine]	> 7.00
Cc1cc(Nc2nccc(C(F)(F)F)n2)cc(-c2ccc(N3CCN(S(C)(=O)=O)CC3)nc2)c1 [Example 7.48, N-(3-methyl-5-{6-[4-(methylsulfonyl)piperazin-1-yl]pyridin-3-yl}phenyl)-4-(trifluoromethyl)pyrimidin-2-amine]	6.00 to 7.00
CCN1CCN(c2ccc(-c3cc(C)cc(Nc4nccc(C(F)(F)F)n4)c3)cn2)CC1 [Example 7.49, N-{3-[6-(4-ethylpiperazin-1-yl)pyridin-3-yl]-5-methylphenyl}-4-(trifluoromethyl)pyrimidin-2-amine]	6.00 to 7.00
CC(=O)NCCN(C)c1ccc(-c2cc(C)cc(Nc3nccc(C(F)(F)F)n3)c2)cn1 [Example 7.50, N-(2-{methyl[5-(3-methyl-5-{[4-(trifluoromethyl)pyrimidin-2-yl]amino}phenyl)pyridin-2-yl]amino}ethyl)acetamide]	> 7.00
Cc1cc(Nc2nccc(C(F)(F)F)n2)cc(-c2ccc(N3CCCC(F)(F)C3)nc2)c1 [Example 7.53, N-{3-[6-(3,3-difluoropiperidin-1-yl)pyridin-3-yl]-5-methylphenyl}-4-(trifluoromethyl)pyrimidin-2-amine]	6.00 to 7.00
COCC1CCCN1c1ccc(-c2cc(C)cc(Nc3nccc(C(F)(F)F)n3)c2)cn1 (stereo not shown) [Example 7.54, N-(3-{6-[2-(methoxymethyl)pyrrolidin-1-yl]pyridin-3-yl}-5-methylphenyl)-4-(trifluoromethyl)pyrimidin-2-amine]	6.00 to 7.00
Cc1cc(Nc2nccc(C(F)(F)F)n2)cc(-c2ccc(N3CCN(C)C(=O)C3C)nc2)c1 (stereo not shown) [Example 7.55, 1,3-dimethyl-4-[5-(3-methyl-5-{[4-(trifluoromethyl)pyrimidin-2-yl]amino}phenyl)pyridin-2-yl]piperazin-2-one]	> 7.00
Cc1cc(Nc2nccc(C(F)(F)F)n2)cc(-c2ccc(N3CCC(F)(F)CC3)nc2)c1 [Example 7.56, N-{3-[6-(4,4-difluoropiperidin-1-yl)pyridin-3-yl]-5-methylphenyl}-4-(trifluoromethyl)pyrimidin-2-amine]	6.00 to 7.00
Cc1cc(Nc2nccc(C(F)(F)F)n2)cc(-c2ccc(N3CC(C)NC(C)C3)nc2)c1 (stereo not shown) [Example 7.58, N-{3-[6-(3,5-dimethylpiperazin-1-yl)pyridin-3-yl]-5-methylphenyl}-4-(trifluoromethyl)pyrimidin-2-amine]	> 7.00
CC(=O)N1CCCN(c2ccc(-c3cc(C)cc(Nc4nccc(C(F)(F)F)n4)c3)cn2)CC1 [Example 7.59, N-{3-[6-(4-acetyl-1,4-diazepan-1-yl)pyridin-3-yl]-5-methylphenyl}-4-(trifluoromethyl)pyrimidin-2-amine]	> 7.00
CCCN1CCCN(c2ccc(-c3cc(C)cc(Nc4nccc(C(F)(F)F)n4)c3)cn2)CC1 [Example 7.60, N-{3-methyl-5-[6-(4-propyl-1,4-diazepan-1-yl)pyridin-3-yl]phenyl}-4-(trifluoromethyl)pyrimidin-2-amine]	6.00 to 7.00
COCC1CCN(c2ccc(-c3cc(C)cc(Nc4nccc(C(F)(F)F)n4)c3)cn2)C1 (stereo not shown) [Example 7.61, N-(3-{6-[3-(methoxymethyl)pyrrolidin-1-yl]pyridin-3-yl}-5-methylphenyl)-4-(trifluoromethyl)pyrimidin-2-amine]	6.00 to 7.00
CCCOC1CCCN(c2ccc(-c3cc(C)cc(Nc4nccc(C(F)(F)F)n4)c3)cn2)C1 (stereo not shown) [Example 7.63, N-{3-methyl-5-[6-(3-propoxypiperidin-1-yl)pyridin-3-yl]phenyl}-4-(trifluoromethyl)pyrimidin-2-amine]	6.00 to 7.00
CC(=O)NCCCNc1ccc(-c2cc(C)cc(Nc3nccc(C(F)(F)F)n3)c2)cn1 [Example 7.64, N-(3-{[5-(3-methyl-5-{[4-(trifluoromethyl)pyrimidin-2-yl]amino}phenyl)pyridin-2-yl]amino}propyl)acetamide]	> 7.00
Cc1cc(Nc2nccc(C(F)(F)F)n2)cc(-c2ccc(N[C@H](CC(C)C)C(=O)O)nc2)c1 [Example 7.70, N-[5-(3-methyl-5-{[4-(trifluoromethyl)pyrimidin-2-yl]amino}phenyl)pyridin-2-yl]-D-leucine]	> 7.00
Cc1cc(Nc2nccc(C(F)(F)F)n2)cc(-c2ccc(N[C@@H](CCO)C(=O)O)nc2)c1 [Example 7.71, N-[5-(3-methyl-5-{[4-(trifluoromethyl)pyrimidin-2-yl]amino}phenyl)pyridin-2-yl]-L-homoserine]	> 7.00
Cc1cc(Nc2nccc(C(F)(F)F)n2)cc(-c2ccc(N[C@H](Cc3c[nH]cn3)C(=O)O)nc2)c1 [Example 7.73, N-[5-(3-methyl-5-{[4-(trifluoromethyl)pyrimidin-2-yl]amino}phenyl)pyridin-2-yl]-D-histidine]	> 7.00
Cc1cc(Nc2nccc(C(F)(F)F)n2)cc(-c2ccc(N[C@@H](CCS(C)(=O)=O)C(=O)O)nc2)c1 [Example 7.74, (2S)-4-(methylsulfonyl)-2-{[5-(3-methyl-5-{[4-(trifluoromethyl)pyrimidin-2-yl]amino}phenyl)pyridin-2-yl]amino}butanoic acid]	> 7.00

The next lines start with the values.

pIC50	Structure (SMILES)
> 7.00	Cc1cc(Nc2nccc(C(F)(F)F)n2)cc(-c2ccc(NCCC(N)=O)nc2)c1 [Example 7.43, N~3~-[5-(3-methyl-5-{[4-(trifluoromethyl)pyrimidin-2-yl]amino}phenyl)pyridin-2-yl]-beta-alaninamide]
> 7.00	Cc1cc(Nc2nccc(C(F)(F)F)n2)cc(-c2ccc(NC3COC3)nc2)c1 [Example 7.47, N-{3-methyl-5-[6-(oxetan-3-ylamino)pyridin-3-yl]phenyl}-4-(trifluoromethyl)pyrimidin-2-amine]
> 7.00	Cc1cc(Nc2nccc(C(F)(F)F)n2)cc(-c2ccc(N[C@@H]3CCC(=O)NC3)nc2)c1 [Example 7.51, (5R)-5-{[5-(3-methyl-5-{[4-(trifluoromethyl)pyrimidin-2-yl]amino}phenyl)pyridin-2-yl]amino}piperidin-2-one]
> 7.00	Cc1cc(Nc2nccc(C(F)(F)F)n2)cc(-c2ccc(N[C@H]3CCC(=O)NC3)nc2)c1 [Example 7.52, (5S)-5-{[5-(3-methyl-5-{[4-(trifluoromethyl)pyrimidin-2-yl]amino}phenyl)pyridin-2-yl]amino}piperidin-2-one]
> 7.00	Cc1cc(Nc2nccc(C(F)(F)F)n2)cc(-c2ccc(N3CCC[C@H]3C(N)=O)nc2)c1 [Example 7.57, 1-[5-(3-methyl-5-{[4-(trifluoromethyl)pyrimidin-2-yl]amino}phenyl)pyridin-2-yl]-L-prolinamide]
> 7.00	CNC(=O)CCNc1ccc(-c2cc(C)cc(Nc3nccc(C(F)(F)F)n3)c2)cn1 [Example 7.62, N-methyl-N~3~-[5-(3-methyl-5-{[4-(trifluoromethyl)pyrimidin-2-yl]amino}phenyl)pyridin-2-yl]-beta-alaninamide]
6.00 to 7.00	CNC(=O)C1CCCN1c1ccc(-c2cc(C)cc(Nc3nccc(C(F)(F)F)n3)c2)cn1 (stereo not shown) [Example 7.65, N-methyl-1-[5-(3-methyl-5-{[4-(trifluoromethyl)pyrimidin-2-yl]amino}phenyl)pyridin-2-yl)prolinamide]
> 7.00	Cc1cc(Nc2nccc(C(F)(F)F)n2)cc(-c2ccc(NCC(=O)N(C)C)nc2)c1 [Example 7.66, N,N-dimethyl-N~2~-[5-(3-methyl-5-{[4-(trifluoromethyl)pyrimidin-2-yl]amino}phenyl)pyridin-2-yl]glycinamide]
> 7.00	Cc1cc(Nc2nccc(C(F)(F)F)n2)cc(-c2ccc(N3CCNC(=O)C3)nc2)c1 [Example 7.67, 4-[5-(3-methyl-5-{[4-(trifluoromethyl)pyrimidin-2-yl]amino}phenyl)pyridin-2-yl]piperazin-2-one]
> 7.00	Cc1cc(Nc2nccc(C(F)(F)F)n2)cc(-c2ccc(NC3CCNC3=O)nc2)c1 (stereo not shown) [Example 7.68, 3-{[5-(3-methyl-5-{[4-(trifluoromethyl)pyrimidin-2-yl]amino}phenyl)pyridin-2-yl]amino}pyrrolidin-2-one]
> 7.00	Cc1cc(Nc2nccc(C(F)(F)F)n2)cc(-c2ccc(NC(CO)C(=O)O)nc2)c1 (stereo not shown) [Example 7.69, N-[5-(3-methyl-5-{[4-(trifluoromethyl)pyrimidin-2-yl]amino}phenyl)pyridin-2-yl]serine]
> 7.00	Cc1cc(Nc2nccc(C(F)(F)F)n2)cc(-c2ccc(NC3(C(=O)O)CCNCC3)nc2)c1 [Example 7.72, 4-{[5-(3-methyl-5-{[4-(trifluoromethyl)pyrimidin-2-yl]amino}phenyl)pyridin-2-yl]amino}piperidine-4-carboxylic acid]

Same assay, conditions: recombinant GST-hSYK, 25 μM ATP, HTRF; read-out: IC50 (inhibition of human Syk activity)

pIC50	Structure (SMILES)
6.15	CCCOC1CCCN(c2ccc(-c3cc(C)cc(Nc4nccc(C(F)(F)F)n4)c3)cn2)C1 (stereo not shown) [Example 7.63, N-{3-methyl-5-[6-(3-propoxypiperidin-1-yl)pyridin-3-yl]phenyl}-4-(trifluoromethyl)pyrimidin-2-amine]
